Data reported in US6376688B1, “Modified polyunsaturated fatty acids” (Peptide Technology Limited, priority 1994, dated 2002).
Like-named read-outs stand apart in the source and are kept apart here.

How the values were obtained:
TNFα production = test: PHA-induced TNFα production by mononuclear cells (ELISA); format: cell-based, human
Protocol: (§1) Mononuclear cells were separated from peripheral blood of normal human donors as described by Ferrante and Thong (1978. . . ). The mononuclear cells were resuspended in RPMI-1640 containing 20% human AB serum and placed into 96 well microtrays (50 μl per well, cell density […]). Fatty acid (66 μm) was then added in 50 μl and pre-incubated with the cells for 30 min at 37° C. in 5% CO2. Mitogen (PHA, ConA, PWM, Staph. aureus) was then added in 100 μl and the cells incubated for 66 hours at 37° C. in 5% CO2 before the addition of tritiated thymidine (1 μCi/well). After a total of 72 h in culture the cells were harvested and proliferation (thymidine incorporation) and supernatant's assayed for the presence of cytokines. Cytokine levels in culture supernatants were determined by specific ELISA using anti-cytokine antibodies. The following cytokine levels were determined TNFα, TNFβ, interferon-γ, IL-1β, IL-2.

[1] = system: chloroquine sensitive P. falciparum; test: Direct antimalarial activity of novel fatty acids (malaria growth inhibition, 3H-hypoxanthine); format: cell-based
Protocol: The plates were then incubated overnight. Individual well contents were collected onto glass filter paper and incorporated 3H measured in a liquid scintillation counter. Percent growth inhibition of the parasite was then calculated.

P. falciparum = test: Fatty acid stimulated neutrophil-mediated anti-malarial activity; format: cell-based; conditions: for inhibition relative to 22:6 (%) at 16 µM: Plasmodium falciparum
Protocol: To overcome fatty acid insolubility in aqueous solution mixed dipalmitoyl phophatidylcholine (DPC, 400 μg): fatty acid (100 μg) micells were prepared in HBSS by sonication. Neutrophils were pretreated for 30 min at 37° C. In some experiments PUFA were solubilized in ethanol. Aliquots of RBC (5×10^6 with […] parasitaemia) was mixed with neutrophils […] in the wells of a 96-well microtitre plate and than incubated for 2 hr at 37° C. in 5% CO2 in air before adding 1 μCi of 3H-hypoxanthine. The plates were then incubated overnight. Individual well contents were collected onto glass filter paper and incorporated 3H measured in a liquid scintillation counter. Percent growth inhibition of the parasite was then calculated.

[2] = system: human umbilical vein endothelial cells; test: TNFα-induced expression of E-selectin (ELAM-1) by human umbilical vein endothelial cells; format: cell-based; conditions: FIG. 5
Protocol: Human umbilical cord endothelial cells (5×10^4.passage 1) were plated onto the centre 60 wells of 96 well microtrays, the remaining wells were filled with pyrongen-free distilled water to reduce evaporation in the wells containing cells. The cells were fed with fresh medium (M199 supplemented with 20% FCS and endothelial cell growth supplement) every second day until confluent. On the day preceding the assay the cells were washed with HBSS and re-fed. At the time of assay the medium was aspirated and fatty acides prepared in media were added to each well and incubated for various times as shown in FIGS. At 37-0-C in 5% CO2. After this incubation the cells were washed and treated with either TNF or PMA before being washed three times in PBS and fixed (100 μl, 0.025% glutaraldehyde in PBS, overnight at 4° C.). The wells were washed with PBS and either anti-ELAM (Becton-Dickinson, 100 μl, 1/1.000 in M199 containing 20% FCS) or anti-ICAM (Immunotech, 100 μl, […] in M199 containing 20% FCS) was added and incubated for 1 hour at room temperature after which the wells were washed with PBS ant 100 μl of rabbit anti-mouse Ig-HRP conjugate was added (1/1.000. Dako). A further incubation at room temperature for one hour followed before the plates were washed three time prior to the addition of 100 μl of the substrate (ABTS). Colour development was measured at 410 nm in a microplate reader.

[3] = system: cytokine production (TNFα, interferon, IL-2); test: PHA-induced cytokine production by human peripheral blood mononuclear cells (FIG. 3, FIG. 4); format: cell-based; conditions: macrophage and T cell-derived cytokines
Protocol: as §1, with “cytokines.” for “cytokines. Cytokine levels in culture supernatants were determined by specific ELISA using anti-cytokine antibodies. The following cytokine levels were determined TNFα, TNFβ, interferon-γ, IL-1β, IL-2.”
Cytokine levels in culture supernatants were determined by specific ELISA using anti-cytokine antibodies. The following cytokine levels were determined TNFα, TNFβ, interferon-γ, IL-1β, IL-2.

[4] = Table 5, second printing (stands where Table 6 is expected)
[5] = neutrophil-mediated killing of P. falciparum, Table 2

Molecule	EC50 ([1]; Plasmodium falciparum) [µM]	% INHIBITION OF CYTOKINE PRODUCTION (PUFA AT 20 μM) (TNFα production; Table 5, first printing) [%]	% INHIBITION OF CYTOKINE PRODUCTION (PUFA AT 20 μM) (TNFα production; [4]) [%]	EC50 [1] [µM]	other results
CC/C=C\CC(O)/C=C/C=C\CCCCCCCCOCC(=O)O (stereo not drawn) [16-OH-β-oxa 21:3 (n-3), Z,E,Z-(13-Hydroxy-9, 11, 15-octadecatrienyloxy)acetic acid]	40	–	–	–	inhibition at 20 µM (TNFα production; Homo sapiens, PUFA at 20 μM, Table 5, read-out: % INHIBITION OF CYTOKINE PRODUCTION (PUFA AT 20 μM)): 68%
CCCCCC(O)/C=C/C=C\C/C=C\CCCCCOCC(=O)O (stereo not drawn) [16-OH-β-oxa 21:3 (n-6), Z,Z,E-(13-Hydroxy-6,9,11-octadecatienyloxy)acetic acid]	–	71	71	50	% INHIBITION RELATIVE TO 22:6 AT 16 μM (P. falciparum; [5]): 33%
CCCCCC=CCC=CCC=CCC=CCCCC(=O)O [20:4, 5,8,11,14-Eicosatetraenoic acid]	–	–	–	–	effect on TNFα-induced expression of E-selectin [2]: inhibit TNFα-induced expression of E-selection
CCC=CCC=CCC=CCC=CCC=CCCCC(=O)O [20:5, 5,8, 11, 14, 17-eicosapentaenoic]	–	–	–	–	effect on PHA-induced cytokine production [3]: inhibit in vitro production of macrophage and T cell-derived cytokines
CCC=CCC=CCC=CCC=CCC=CCC=CCCC(=O)O [22:6, 4,7, 10, 13, 16, 19-docosahexaenoic acid]	–	–	–	–	effect on PHA-induced cytokine production [3]: inhibit in vitro production of macrophage and T cell-derived cytokines
CCCCC/C=C\C/C=C\C/C=C\C/C=C\CCCCSC(CC(=O)O)C(=O)O (stereo not drawn) [α-carboxymethyl-β-thia 23.4 (n-6)]	–	–	–	50	–
CC/C=C\C/C=C\C/C=C\CCCCCCCCOCC(=O)O [β-oxa 21:3 (n-3), Z,Z,Z-(9, 12, 15-Octadecatrienyloxy) acetic acid]	30	–	39	–	inhibition relative to 22:6 (%) at 16 µM (P. falciparum; [5]): 45%
CCCCC/C=C\C/C=C\C/C=C\CCCCCOCC(=O)O [β-oxa 21:3 (n-6), Z,Z,Z-(6,9, 12-Octadecatrienyloxy) acetic acid]	< 30	–	38	–	–
CC/C=C\C/C=C\C/C=C\C/C=C\CCCCCOCC(=O)O [β-oxa 21:4 (n-3), Z,Z,Z,Z-(6,9, 12, 15-Octadecatetraenyloxy) acetic acid]	40	–	–	–	inhibition relative to 22:6 (%) at 16 µM (P. falciparum; [5]): 85%
CCCCC/C=C\C/C=C\C/C=C\C/C=C\CCCCOCC(=O)O [β-oxa 23.4 (n-6), Z,Z,Z,Z(5,8, 11, 14-Eicosatetraenyloxy) acetic acid]	–	25	25	< 30	–
CC/C=C\C/C=C\C/C=C\C/C=C\C/C=C\C/C=C\CCCOCC(=O)O [β-oxa 25.6 (n-3), Z,Z,Z,Z,Z,Z-(4,7, 10, 13, 16, 19-Docosahexaenyloxy) acetic acid]	< 60	–	–	–	–
CC/C=C\C/C=C\C/C=C\CCCCCCCCSCC(=O)O [β-thia 21:3 (n-3), Z,Z,Z-(9,12,15-Octadecatrienylthio)acetic acid]	30 to 35	–	17	–	inhibition relative to 22:6 (%) at 16 µM (P. falciparum; [5]): 73%
CCCCC/C=C\C/C=C\C/C=C\C/C=C\CCCCSCC(=O)O [β-thia 23:4 (n-6), Z,Z,Z,Z-(5,8,11,14-Eicosatetraenylthio) acetic acid]	15 to 30	–	35	–	inhibition relative to 22:6 (%) at 16 µM (P. falciparum; [5]): 150%
CC/C=C\C/C=C\C/C=C\CCCCCCCCSCCC(=O)O [γ-thia 22.3 (n-3), Z,Z,Z-(9,12,15-Octadecatrienylthio)proponionic acid]	–	25	25	45	–
CCCCC/C=C\C/C=C\C/C=C\CCCCCSCCC(=O)O [γ-thia 22.3 (n-6), Z,Z,Z-(6,9,12-Octadecatrienylthio)propionic acid]	–	41	41	45	–
Z,Z,Z,Z,Z,Z-(9,12,15-Octadecatrienylthio)acetic acid [β-thia 25.6 (n-3)]	–	90	90	25	% INHIBITION RELATIVE TO 22:6 AT 16 μM (P. falciparum; [5]): 47%
Z,Z,Z,Z-(5,8,11,14-Eicosatetraenylthio) propionic acid [γ-thia 24.4 (n-6)]	–	34	34	15	% INHIBITION RELATIVE TO 22:6 AT 16 μM (P. falciparum; Table 2, second printing (stands where Table 3 is expected)): 91%; % INHIBITION RELATIVE TO 22:6 AT 16 μM (P. falciparum; Table 2, third printing (stands where Table 4 is expected)): 91%; % INHIBITION RELATIVE TO 22:6 AT 16 μM (P. falciparum; [5]): 91%
Z,Z,Z,Z-(6,9,12-Octadecatrienylthio)acetic acid [β-thia 21:3 (n-6)]	–	17	17	30 to 50	–
